Results from patent US20070015771A1, “Lonidamine analogs” (Threshold pharmaceuticals, Inc., priority 2004, published 2007).

What was measured:
[1] = tested on: PWR-1E cells; experiment: Antiproliferation assay 3 days, PWR-1E cells (Example 49); format: cell-based; settings: 3 day treatment; read-out: PWR1e cell line IC50
Experimental: (§1) To determine the effect of lonidamine analogs thereof on cell proliferation, the antiproliferative activity of these compounds was tested in a multi-well Alamar Blue based assay (at 3 days). Cell growth in the presence and absence of the test compound was compared, as measured by a fluoresence plate reader at excitation 550 nm and emission 590 nm (see Biosource International Inc., Tech Application Notes, Use of Alamar Blue in the measurement of Cell Viability and Toxity, Determining IC50). The following cell lines were tested: PWR-1E cells ((ATCC CRL-11611), 3500 cells/well/200 μl in Keratinocyte SFM medium (Gibco Products, Invitrogen Corporation, Carlsbad, Calif.)); DU-145 cells ((ATCC HTB-81), 4000 cells/well/200 μl in MEM Eagles medium (ATCC, Manassas, Va.)); PC3 cells ((ATCC CRL-1435), 4000 cells/200 μl in Modified HAM's F12 medium (ATCC, Manassas, Va.)); PNt2 cells ((Sigma-Aldrich, 95012613-1 VL), 4000 cells/well/200 μl in RPMI medium (Gibco Products, Invitrogen Corporation, Carlsbad, Calif.), BPH-1 ((DSMZ ACC-143), 4000 cells/well/200 μl in RPMI medium (Gibco Products, Invitrogen Corporation, Carlsbad, Calif), and NCI-H460 cells ((ATCC HTB-177), 4000 cells/well/200 μl in RPMI medium (Gibco Products, Invitrogen Corporation, Carlsbad, Calif.)). The cells were seeded in a 96 well plate in a medium specified above. After 24 hours, these plates were divided into 2 groups—Control group and 3 day treatment group. A test compound was added to each plate in the treatment groups at concentrations of […] as tabulated in Table 1 (in 2 μl 1 of 100% DMSO, final DMSO concentration 1% in all wells). For NCI-H460 cells, test compounds were added to each plate in the treatment groups at concentrations of 600, 300, 100, 30, 10, 3, and 1 μM (in 2 μl of 100% DMSO, final DMSO concentration 1% in all wells). The cells in the 3 day treatment group were incubated for 3 days, followed by staining with AlamarBlue. In the Control group, AlamarBlue was added to the plate at (i) day 0 and (ii) day 3 and measured to establish the control reading. […] For the NCI-H460 cells, the capacity of the cells to proliferate was measured 5 hours after addition of AlamarBlue using the same fluorescence plate reader as stated above.

[2] = tested on: PC3 cells; experiment: Antiproliferation assay 3 days, PC3 cells; format: cell-based, human; settings: 3 day treatment; read-out: PC-3 cell line IC50
Experimental: as §1

[3] = tested on: LNCaP cells; experiment: Cell cycle analysis; format: cell-based, human; settings: for % G0/G / % G2/M / % S: 24 h
Experimental: The effect of compound 1 (as described in Example 1 above) on the cell cycle was determined as follows. LNCaP cells (2×10^5 cells/ml/well) were seeded in a 24 well plate. The culture media were removed after 24 h, the cells were trypsinized and centrifuged. The cell pellets were resuspended in 100 μl PBS buffer, after which 300 μl of ice-cold ethanol (96%) added dropwise, and the cells were incubated at 4° C. for at least 24 hr. The cells were centrifuged and the supernatant was discarded. The cell cycle staining reagent (Guava Technologies, Hayward, Calif., USA, 200 μl) was added to each well. The cells were shielded from light and incubated at room temperature for 30 min. The samples were analyzed (Guava PCA-96 instrument, Cytosoft software, Guava Technologies, 25801 Industrial Boulevard, Hayward Calif. 94545-2991, USA) as tabulated below.

[4] = tested on: mouse prostate; experiment: Mouse study, 10 days oral, prostate weight; format: in vivo; settings: C57B1/6J mice, oral daily for 10 days, 0.2-20 mg/kg
Experimental: (§2) The control mice received an equal amount of the vehicle (carboxymethylcellulose). […] Relative weights of entire prostate and individual lobes were calculated by dividing the corresponding absolute weight by the total weight of the mouse. Relative weights of the entire prostate, the dorsal prostate, and the ventral prostate were calculated by dividing the absolute weight by the total weight of the mouse. Relative weights of the left and right testis were calculated by dividing the corresponding absolute weights by the total weights of the mouse.

[5] = tested on: left and right testis; experiment: Mouse study, 10 days oral, testis weight; format: in vivo; settings: C57B1/6J mice, oral daily for 10 days, 0.2-20 mg/kg
Experimental: as §2

[6] = tested on: mouse prostate cells; experiment: In vivo viability and proliferation of mouse prostate cells (TUNEL, PCNA); settings: mice treated with 20 mg/kg, with respect to vehicle
Experimental: Prostate cells harvested from mice treated with 20 mg/kg of Compound I were assayed by the TUNEL assay (e.g., see Example 48).

[7] = tested on: SH rat prostate; experiment: 5 day systemic administration in male SH rats, prostate; format: in vivo; settings: male SH rats, oral daily for 5 days at 50 mg/ml, day 6
Experimental: The effect of test compounds (lonidamine and lonidamine analogs) on the SH rat prostate was determined as follows. The test compound was orally administered daily for 5 days to male, SH rat, (n=6, 14 weeks old, Charles River Labs) at 50 mg/ml concentrations (as a 0.5% carboxymethylcellulose formulation). The control rats received an equal amount of the vehicle ([…]). Blood samples were collected 2 hours after administration on day 6, for pharmokinetic analysis of the compounds. On day 6 the rats were sacrificed and the entire prostate and the individual lobes (e.g., the ventral, dorso-lateral, and anterior lobes) were removed and weighed to measure absolute weights. Relative weights of prostate and individual lobes were calculated by dividing the absolute weight by the total body weight of the […]. Relative weights of the entire prostate, the dorsal prostate, and the ventral prostate were calculated by dividing the absolute weight by the total weight of the mouse. The histomorphology of the prostate was also analyzed and compared to that of the control or untreated prostate.

In the case of `O=C(NO)c1nn(Cc2ccc(Cl)cc2Cl)c2ccccc12` [Compound 1], the IC50 [1] is reported as 5.3 µM, the IC50 [2] is reported as 15 µM and the “effect on the cell cycle” value ([3]; 2.5-200 μM) is reported as “does not have a measurable effect”. The “% G0/G” value ([3]; 2.5 μM) was 59%, the “% G2/M” value ([3]; 2.5 μM) was 27% and the “% S” value ([3]; 2.5 μM) was 11%. For the same compound, the “% G0/G” value ([3]; 7.4 μM) was 56%, the “% G2/M” value ([3]; 7.4 μM) was 26% and the “% S” value ([3]; 7.4 μM) was 15%. For the same compound, the “% G0/G” value ([3]; 22.2 μM) was 57%, the “% G2/M” value ([3]; 22.2 μM) was 25% and the “% S” value ([3]; 22.2 μM) was 11%. The “% G0/G” value ([3]; 66.7 μM) was 51%, the “% G2/M” value ([3]; 66.7 μM) was 24% and the “% S” value ([3]; 66.7 μM) was 19%. The “% G0/G” value ([3]; 200 μM) was 41%, the “% G2/M” value ([3]; 200 μM) was 17% and the “% S” value ([3]; 200 μM) was 18%. The “absolute dorsal prostate weight (FIG. 10)” value [4] was “dose dependent reduction”, the “absolute ventral prostate weight (FIG. 9)” value [4] was “dose dependent reduction” and the “absolute whole prostate weight (FIG. 11)” value [4] was “dose dependent reduction”. The prostate weight [4] was “dose dependent reduction”, the “relative dorsal prostate weight (FIG. 7)” value [4] was “dose dependent reduction” and the “relative ventral prostate weight (FIG. 8)” value [4] was “dose dependent reduction”. For the same compound, the “relative whole prostate weight (FIG. 6)” value [4] was “dose dependent reduction”, the “absolute left testis weight (FIG. 13)” value [5] was “dose dependent reduction” and the “absolute right testis weight (FIG. 12)” value [5] was “dose dependent reduction”. The “relative left testis weight (FIG. 5)” value [5] was “dose dependent reduction”, the “relative right testis weight (FIG. 4)” value [5] was “dose dependent reduction” and the “apoptosis of prostate cells (TUNEL assay)” value [6] was “more apoptotic”. The “cell cycle inhibition (PCNA assay)” value [6] was “greater cell cycle inhibition” and the Prostate shrinkage [7] was −4.8%.
